Columns and labels:
ABCB10 (ABCB10-V5) [1] = target: T1, ABCB10 (ABCB10-V5) (Mus musculus, UniProt Q9JI39); test: UV photolabelling of SMPs, anti-V5 IP, ExtrAvidin-HRP blot; conditions: 3 mM MgCl2, pH 7.5, on ice; covalent after UV irradiation; labelled compound; net of binding and hydrolysis
T1 construct: full-length cDNA in pEF1alpha-V5-His (V5-His tagged), overexpressed in HEK293; detected at approx. 65 kD; assayed in sub-mitochondrial particles, then anti-V5 immunoprecipitated
T1 sequence (Q9JI39 83-715): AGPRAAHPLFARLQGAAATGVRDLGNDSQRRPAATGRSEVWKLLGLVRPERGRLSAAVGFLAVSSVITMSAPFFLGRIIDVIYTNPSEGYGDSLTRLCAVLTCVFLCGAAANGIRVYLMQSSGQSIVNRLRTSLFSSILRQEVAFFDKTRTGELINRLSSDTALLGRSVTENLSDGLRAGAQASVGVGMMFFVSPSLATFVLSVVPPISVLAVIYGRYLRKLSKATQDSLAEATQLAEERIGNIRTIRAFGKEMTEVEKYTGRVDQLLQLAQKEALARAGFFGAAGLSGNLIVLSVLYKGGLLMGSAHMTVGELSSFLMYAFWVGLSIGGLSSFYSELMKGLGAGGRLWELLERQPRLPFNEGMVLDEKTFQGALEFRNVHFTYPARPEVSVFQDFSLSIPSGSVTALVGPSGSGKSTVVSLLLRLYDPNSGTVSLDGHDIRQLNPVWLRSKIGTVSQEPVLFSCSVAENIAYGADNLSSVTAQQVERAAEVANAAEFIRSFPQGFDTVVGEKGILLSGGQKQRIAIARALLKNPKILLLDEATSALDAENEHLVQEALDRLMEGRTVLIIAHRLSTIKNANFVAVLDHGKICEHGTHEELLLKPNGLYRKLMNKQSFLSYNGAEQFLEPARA

ABCB10 (ABCB10-V5) [2] = target: T1, ABCB10 (ABCB10-V5); test: competition with 8-azido-ATP [γ] biotin photolabelling in SMPs, anti-V5 IP; conditions: 50 μM 8-azido-ATP [γ] biotin, 3 mM MgCl2, pH 7.5, on ice; nucleotide binding domain, competitive

| Km (ABCB10 (ABCB10-V5) [1]) [µM] | Compound | competition with 8-azido-ATP [γ] biotin photolabelling in SMPs, anti-V5 IP (ABCB10 (ABCB10-V5) [2]) |
| --- | --- | --- |
| 128 | 8-azido-ATP [γ] biotin |  |
|  | Nc1nc2c(ncn2[C@@H]2O[C@H](COP(=O)(O)OP(=O)(O)OP(=O)(O)O)[C@@H](O)[C@H]2O)c(=O)[nH]1 [GTP] | GTP, CTP and TTP could compete with ATP, but their effect was milder |
|  | Cc1cn([C@H]2C[C@H](O)[C@@H](COP(=O)(O)OP(=O)(O)OP(=O)(O)O)O2)c(=O)[nH]c1=O [TTP] | GTP, CTP and TTP could compete with ATP, but their effect was milder |
|  | Nc1ncnc2c1ncn2[C@@H]1O[C@H](COP(=O)(O)OP(=O)(O)OP(=O)(O)O)[C@@H](O)[C@H]1O [ATP] | Increasing concentrations of unlabeled ATP decreased 8-azido-ATP [γ] biotin photolabeling |
|  | Nc1ccn([C@@H]2O[C@H](COP(=O)(O)OP(=O)(O)OP(=O)(O)O)[C@@H](O)[C@H]2O)c(=O)n1 [CTP] | GTP, CTP and TTP could compete with ATP, but their effect was milder |

From article PMC4459825, “ATP Binding and Hydrolysis Properties of ABCB10 and Their Regulation by Glutathione” (PLoS ONE, 2015)
